Source: patent publication US20120328536A1, “Taste Improving Substances” (QUEST INTERNATIONAL SERVICES B.V., priority 2006, published 2012)

Key:
[1] = Tasting of Odol mouthwater by a professional panel; settings: 50 ppm in Odol mouthwater
Protocol: Commercially available Odol mouthwater (GlaxoSmithKline) was obtained from a local pharmacy and 4 solutions were prepared.
To a first sample (sample A), 50 ppm of N-(2-hydroxyethyl) 5-hydroxyhexanoyl amide (as prepared in example 1) was added. Samples A was tasted by a professional panel and compared with the mouthwater without added N-(2-hydroxyethyl) 5-hydroxyhexanoyl amide.

[2] = Tasting of NaCl/MSG/pepper oleoresin solution by a professional panel; settings: 50 ppm in 0.6% NaCl, 0.03% MSG, 4 ppm pepper oleoresin
Protocol: Two solutions of 0.6% NaCl and 0.03% MSG and 4 ppm pepper oleoresin (ex Warner Jenkinson, St Louis, USA) were prepared. To one sample (sample A), 50 ppm of N-(2-hydroxyethyl) 5-hydroxyhexanoyl amide (as prepared in example 1) was added. The other sample was used as the reference. Both samples were tasted by a professional panel.

[3] = Tasting of toothpaste by a professional panel; settings: 50 ppm in commercial toothpaste
Protocol: Commercially available toothpaste was obtained from a local pharmacy and 4 samples of paste were prepared.
To a first sample (sample A), 50 ppm of N-(2-hydroxyethyl) 5-hydroxyhexanoyl amide (as prepared in example 1) was added and homogenized. Samples A was tasted by a professional panel and compared with the toothpaste without added N-(2-hydroxyethyl) 5-hydroxyhexanoyl amide.

[4] = Tasting of 3% alcohol in water by a professional panel; settings: 50 ppm in 3% alcohol in water
Protocol: Two solutions of 3% alcohol in water were prepared. To one sample (sample A), 50 ppm of N-(2-hydroxyethyl) 5-hydroxyhexanoyl amide (as prepared in example 1) was added. The other sample was used as the reference sample. Both samples were tasted by a professional panel.

[5] = Tasting of menthol fondant by a professional panel; settings: 50 ppm in fondant with 2500 ppm menthol
Protocol: Two samples of fondant were prepared by mixing 65 Fondacreme (ex Belgosuc NV Belgium) with 35% sugar syrup (67° Brix). 2500 Ppm menthol was added as a 50% solution in propylene glycol. To a first sample (sample A), 50 ppm of N-(2-hydroxyethyl) 5-hydroxyhexanoyl amide (as prepared in example 1) was added. The second sample was the reference sample. The Samples were tasted by a professional panel.

N-(2-hydroxyethyl) 5-hydroxyhexanoyl amide
cooling in the oral cavity [1]: more aggressive cooling in the whole oral cavity | initial cooling and mouth-coating [1]: more initial cooling and more mouth-coating | overall impact compared with mouthwater without the amide [1]: stronger overall impact | after-taste compared to the reference sample [2]: more a hot, tingling after-taste | initial hotness compared to the reference sample [2]: initial hotness was increased | cooling in the oral cavity [3]: more aggressive cooling in the whole oral cavity | initial cooling and mouth-coating [3]: more initial cooling and more mouth-coating | overall impact compared with the reference sample [3]: stronger overall impact | alcohol impression compared to the reference sample [4]: alcohol-boosting effect | ethanol water mixture that the sample tasted like [4]: 5-6% | cooling compared with the reference sample [5]: more intense cooling than the reference sample | onset and location of the cooling effect [5]: its effect is immediate and through the whole oral cavity
